According to patent US20130158024A1, “TRICYCLIC NECROSTATIN COMPOUNDS” (priority 2005, published 2013):

Assays:
SH-SY5Y cells [1] = test: MPP+ cytotoxicity in SH-SY5Y neuroblastoma cells in the presence of zVAD, ATP assay; assay type: cell-based, human; details: zVAD 100 μM, compound 30 μM, 72 hours
Method: FIG. 15 is a chart showing that necrostatins attenuate MPP^+ cytotoxicity in human SH-SY5Y neuroblastoma cells. Cells were treated with 5 mM MPP^+ in the presence or absence of 100 μM zVAD.fmk and 30 μM necrostatins for 72 hours, followed by an ATP assay. Values represent cell viability normalized to the corresponding compound treated controls not treated with MPP^+.
(§1) FIG. 35A is a graph showing the results of treating SH-SY5Y cells with 1 mM MPP+ in the presence of zVAD (100 μM) and compound (19) (30 μM) for 72 hours. Cell viability was determined using an ATP assay. FIG. 35B is a graph as in FIG. 35A, in which cells were treated in the presence of 100 μM amyloid-beta 25-35 protein rather than MPP+.

[2] = tested on: Jurkat cells expressing dimerizable FADD; test: Toxicity of compound alone in Jurkat cells expressing dimerizable FADD (no dimerizer); details: compound in the absence of dimerizer
[3] = tested on: Jurkat cells expressing dimerizable FADD; details: Homo sapiens, Jurkat, 36 h
Jurkat T cells = test: Necrosis (CICD) of Jurkat T cells induced by Fas ligand, cycloheximide and zVAD, ATP assay; assay type: cell-based, human; details: FasL/CHX/zVAD
Method: Jurkat cells were treated with 5 ng/ml of FasL without (A) or with cyclohexamide (CHX) (B) to induce apoptosis, or 5 ng/ml FasL, 1 μg/ml of CHX and 100 μM of zVAD.fmk to induce CICD (B). […] Cell viability was determined after 24 hours of incubation with indicated reagents using CellTiter-Glo ATP assay. The values represent viability relative to the control Jurkat cells without the treatment of FasL, which was set as 100% viability.
FIG. 34A is a graph showing the results of treating Jurkat T cells with Fas ligand (5 ng/ml), cyclohexamide (1 μg/ml) and zVAD (100 μM) in the presence of the indicated amounts of anti-necrotic compounds (4) and (5). Viability was determined 36 hours later using an ATP assay. The viability values are relative to the samples lacking Fas ligand, which were used as 100% viability controls. FIG. 34B is a graph as in FIG. 34A, in which the anti-necrotic compounds are (19) and (20).
Compounds were also tested in another necrosis assay utilizing human Jurkat T cells, Fas ligand to induce cell death, and zVAD to inhibit the apoptosis pathway. After 36 hours, cell viability was measure by the commercial CellTiter ATP cell viability assay (Promega).

SH-SY5Y cells [4] = test: Amyloid-beta 25-35 toxicity in SH-SY5Y cells in the presence of zVAD, ATP assay; assay type: cell-based, human; details: 100 μM amyloid-beta 25-35, zVAD 100 μM, compound 30 μM, 72 hours
Method: as §1
To further verify that (19) can protect neuronal cells from necrosis, it was tested using two different neurotoxins in the human neuroblastoma cell line SH-SY5Y in the presence of zVAD. Cell death was induced by β-amyloid, a cellular model of Alzheimer's disease, and […] (MPP+), a cellular model of Parkinson's disease.

## Cc1cc(O)c(C(=O)/C=C/c2ccc(O)c([N+](=O)[O-])c2)c(=O)o1 [Nec-2]
SH-SY5Y cells [1]
  attenuation of MPP+ cytotoxicity, in words: especially pronounced in case of Nec-2
[2]
  LD50: 134 µM
[3]
  EC50: 27.3 µM

## COc1ccc([C@H]2[C@H]3CCc4ccc(OC)cc4C3=NN2C(C)=O)cc1 (relative stereo) [Compound 141, (3R,3aR)-rel-2-acetyl-3,3a,4,5-tetrahydro-3-(4-methoxyphenyl)-8-methoxy-2H-benz[g]indazole]
Jurkat T cells
  inhibition of CICD/necrosis of Jurkat cells, in words: efficiently inhibit necrosis and result in high cell viability
SH-SY5Y cells [1]
  attenuation of MPP+ cytotoxicity, in words: effective in reducing toxicity as measured by cellular ATP levels
SH-SY5Y cells [4]
  reduction of β-amyloid toxicity in SH-SY5Y, in words: effective in reducing toxicity as measured by cellular ATP levels
